Laboratory results published in publication PMC7180948, “New Insights into 4-Anilinoquinazolines as Inhibitors of Cardiac Troponin I–Interacting Kinase (TNNi3K)” (Molecules, 2020).

Target: T1, cardiac troponin I–interacting kinase (TNNi3K) (Homo sapiens, UniProt Q59H18)
T1 sequence (Q59H18 1-835): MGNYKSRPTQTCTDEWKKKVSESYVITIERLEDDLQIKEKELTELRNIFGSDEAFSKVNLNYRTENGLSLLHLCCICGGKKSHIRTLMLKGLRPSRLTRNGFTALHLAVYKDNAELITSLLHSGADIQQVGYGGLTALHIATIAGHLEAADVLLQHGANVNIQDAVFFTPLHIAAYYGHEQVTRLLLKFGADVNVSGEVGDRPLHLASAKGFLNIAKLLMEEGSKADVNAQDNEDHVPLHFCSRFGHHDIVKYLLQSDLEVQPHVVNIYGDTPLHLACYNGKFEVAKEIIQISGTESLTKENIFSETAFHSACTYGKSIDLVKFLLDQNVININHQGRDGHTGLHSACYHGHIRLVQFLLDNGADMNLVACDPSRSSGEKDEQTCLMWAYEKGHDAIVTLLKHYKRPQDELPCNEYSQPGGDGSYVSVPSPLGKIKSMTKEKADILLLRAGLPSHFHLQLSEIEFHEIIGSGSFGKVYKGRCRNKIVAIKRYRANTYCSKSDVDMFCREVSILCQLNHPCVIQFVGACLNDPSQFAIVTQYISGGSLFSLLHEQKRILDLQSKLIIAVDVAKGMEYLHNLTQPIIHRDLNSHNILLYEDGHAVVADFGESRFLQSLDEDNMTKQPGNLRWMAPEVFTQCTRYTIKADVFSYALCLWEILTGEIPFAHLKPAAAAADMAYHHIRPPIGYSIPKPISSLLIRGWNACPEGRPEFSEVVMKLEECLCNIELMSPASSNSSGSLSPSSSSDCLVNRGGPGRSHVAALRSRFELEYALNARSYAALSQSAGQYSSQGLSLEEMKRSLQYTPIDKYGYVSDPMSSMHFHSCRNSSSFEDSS
Experiment: TNNi3K binding assay (Kd, n = […])

CNS(=O)(=O)c1ccc(N(C)C)c(Nc2ncnc3cc(OC)ccc23)c1 [compound 17, 4-(dimethylamino)-3-((7-methoxyquinazolin-4-yl)amino)-N-methylbenzenesulfonamide]
Kd: 11 nM

CNS(=O)(=O)c1cccc(Nc2ncnc3cc(OC)c(OC)cc23)c1 [compound 2, 3-((6,7-dimethoxyquinazolin-4-yl)amino)-N-methylbenzenesulfonamide]
Kd: 120 nM

CNS(=O)(=O)c1ccc(N(C)C)c(Nc2ncnc3ccc(OC)cc23)c1 [compound 16, 4-(dimethylamino)-3-((6-methoxyquinazolin-4-yl)amino)-N-methylbenzenesulfonamide]
Kd: 90 nM

COc1cc2ncnc(Nc3ccccc3N(C)C)c2cc1OC [compound 20, N^1-(6,7-dimethoxyquinazolin-4-yl)-N^2,N^2-dimethylbenzene-1,2-diamine]
Kd: 6200 nM
